The text below walks through data of EP1180513A1, “CYCLIC AMIDE COMPOUNDS, PROCESS FOR THE PREPARATION OF THE SAME AND USES THEREOF” (Takeda Chemical Industries, Ltd., priority 1999, dated 2000).

Structures are written as SMILES. Where a name gives a salt, the structure may show the parent alone.

T1 sequence (P51681 whole entry): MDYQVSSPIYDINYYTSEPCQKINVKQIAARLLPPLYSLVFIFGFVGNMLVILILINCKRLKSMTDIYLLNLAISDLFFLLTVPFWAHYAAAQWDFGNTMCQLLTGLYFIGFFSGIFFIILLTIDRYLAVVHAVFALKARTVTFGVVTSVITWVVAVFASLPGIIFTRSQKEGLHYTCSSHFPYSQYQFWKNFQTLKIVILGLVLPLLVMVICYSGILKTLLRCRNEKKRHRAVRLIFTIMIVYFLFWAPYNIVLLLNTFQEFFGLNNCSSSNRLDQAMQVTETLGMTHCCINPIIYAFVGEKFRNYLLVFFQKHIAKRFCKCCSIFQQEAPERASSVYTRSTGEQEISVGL

This assay has as its target T1, human CCR5 (Homo sapiens, UniProt P51681).
T1 construct: expressed in transfected cells
The experiment in a line: CCR5 binding inhibition: [125I]-RANTES binding to CHO/CCR5 cells. The settings on record: Test Compound 1 µM, 100 pM [125I]-RANTES as ligand, room temperature, 40 minutes, read-out: Inhibitory rate (%) at 1.0 µM. As for the experimental part:
CHO-K1 cells were grown in 750ml of tissue culture flask (Becton Dickinson) using Ham's F12 medium (Nihon Pharmaceutical) containing 10% fetal calf serum (Life Tech Oriental) and took off with 0.5 g/L trypsin-0.2 g/L EDTA (Life Tech Oriental). The cells were washed with PBS (Life Tech Oriental), centrifuged (1000 rpm, 5 minutes), and suspended in PBS. With using Gene Pulser (Bio-Rad Laboratories), DNA was introduced into the cells under the conditions shown below. That is, to the cuvette of 0.4 cm gap were added 8×10^6 cells and 10 µg of plasmid pCKR5 for expression of human CCR5, and electroporation was carried out under 0.25 kV of voltage and 960 µF of capacitance. The cells were transferred into Ham's F12 medium containing 10% fetal calf serum, and cultivated for 24 hours. The cells were again took off and centrifuged, and suspended in Ham's F12 medium containing 10% fetal calf serum and 500 µg/ml of geneticin (Life Tech Oriental). The suspension was diluted to give 10^4 cells/ml of the suspension, which was inoculated on 96 well plate (Becton Dickinson) to give resistant cells. The resulting geneticin resistant cells were cultivated in 96 well plate (Becton Dickinson), and cells expressing CCR5 were selected from the geneticin resistant cells. That is, in assay buffer (Ham's F12 medium containing 0.5% BSA and 20 mM HEPES (Wako Pure Chemical, pH 7.2)) to which was added 200 pM of [^125I]-RANTES (Amersham) as ligand, binding reaction was carried out at room temperature for 40 minutes, and the buffer was washed with cooled PBS. To the buffer was added 50 µl/well of 1M NaOH, and the mixture was stirred. Radioactivity was determined with γ-counter to select CHO/CCR5 cells which specifically bind to the ligand.
The CHO/CCR5 were inoculated on 96 well microplate (5×10^4 cells/well) and cultivated for 24 hours. The medium was removed by means of suction, and to each well was added assay buffer containing Test Compound (1 µM) and then 100 pM of [^125I]-RANTES (Amersham) as ligand. Binding assay was carried out at room temperature for 40 minutes, and assay buffer was removed by means of suction. Each well was washed twice with cooled PBS, and 200 µl of Microscint-20 (Packard Instrument, Inc.) was added to each well. Radio-activity was determined with Top-Count (Packard Instrument, Inc.).
According to the method described above, inhibition rate of Test Compound to CCR5 binding.
Take `CN1CC(C(=O)N(CCCN2CCC(Cc3ccccc3)CC2)c2ccccc2)CC1=O` (stereo not drawn) [Example 1, N-[3-(4-benzyl-1-piperidinyl)propyl]-1-methyl-5-oxo-N-phenyl-3-pyrrolidinecarboxamide hydrochloride]: the inhibition at 1 µM worked out at 57%.

For `CN1CC(C(=O)N(CCCN2CCC(C(=O)c3ccc(F)cc3)CC2)c2ccccc2)CC1=O` (stereo not drawn) [Example 13, N-{3-[4-(4-fluorobenzoyl) -1-piperidinyl]propyl}-1-methyl-5-oxo-N-phenyl-3-pyrrolidinecarboxamide], the inhibition at 1 µM was determined as 40%.

Consider `CN1CC(C(=O)N(CCCCN2CCC(C(=O)c3ccc(F)cc3)CC2)c2ccccc2)CC1=O` (stereo not drawn) [Example 17, N-{4-[4-(4-fluorobenzoyl)-1-piperidinyl]butyl}-1-methyl-5-oxo-N-phenyl-3-pyrrolidinecarboxamide], for which the inhibition at 1 µM came to 22%.

`CN1CC(C(=O)N(CCCN2CCC(Cc3ccc(F)cc3)CC2)c2ccc(Cl)c(Cl)c2)CC1=O` (stereo not drawn) [Example 84, N-(3,4-dichlorophenyl)-N-{3-[4-(4-fluorobenzyl)-1-piperidinyl]propyl}-1-methyl-5-oxo-3-pyrrolidinecarboxamide hydrochloride]: the inhibition at 1 µM was 92%.

Regarding `CN1CC(C(=O)N(CCCN2CCC(Cc3ccccc3)CC2)c2cccc(Cl)c2)CC1=O` (stereo not drawn) [Example 38, N-[3-(4-benzyl-1-piperidinyl)propyl]-N-(3-chlorophenyl)-1-methyl-5-oxo-3-pyrrolidinecarboxamide hydrochloride], the inhibition at 1 µM was determined as 82%.

Turning to `CN1CC(C(=O)N(CCCN2CCC(Cc3ccccc3)CC2)c2ccc(Cl)c(Cl)c2)CC1=O` (stereo not drawn) [Example 23, N-[3-(4-benzyl-1-piperidinyl)propyl]-N-(3,4-dichlorophenyl)-1-methyl-5-oxo-3-pyrrolidinecarboxamide hydrochloride], the inhibition at 1 µM is 95%.

With `O=C1CC(C(=O)N(CCCN2CCC(Cc3ccccc3)CC2)c2ccccc2)CN1c1ccccc1` (stereo not drawn) [Example 52, N-[3-(4-benzyl-1-piperidinyl)propyl]-5-oxo-N,1-diphenyl-3-pyrrolidinecarboxamide], the inhibition at 1 µM was determined as 76%.

For the compound `CN1CC(C(=O)N(CCCN2CCC(Cc3ccccc3)CC2)Cc2ccccc2)CC1=O` (stereo not drawn) [Example 62, N-benzyl-N-[3-(4-benzyl-1-piperidinyl)propyl]-1-methyl-5-oxo-3-pyrrolidinecarboxamide], the inhibition at 1 µM amounted to 67%.

`CN1CC(C(=O)N(CCCN2CCC3(C=Cc4ccccc43)CC2)c2ccccc2)CC1=O` (stereo not drawn) [Example 8, N-[3-(indene-1-spiro-4'-piperidin-1'-yl)propyl]-1-methyl-5-oxo-N-phenyl-3-pyrrolidinecarboxamide fumarate]: the inhibition at 1 µM amounted to 24%.

On to `O=C1CC(C(=O)N(CCCN2CCC(Cc3ccccc3)CC2)c2ccccc2)CN1Cc1ccccc1Cl` (stereo not drawn) [Example 76, N-[3-(4-benzyl-1-piperidinyl)propyl]-1-(2-chlorobenzyl)-5-oxo-N-phenyl-3-pyrrolidinecarboxamide], for which the inhibition at 1 µM amounted to 91%.

With `O=C1CC(C(=O)N(CCCN2CCC(Cc3ccccc3)CC2)c2ccccc2)CN1CC(F)(F)F` (stereo not drawn) [Example 93, N-[3-(4-benzyl-1-piperidinyl)propyl]-5-oxo-N-phenyl-1-(2,2,2-trifluoroethyl)-3-pyrrolidinecarboxamide], the inhibition at 1 µM was 90%.

In the case of `O=C1CC(C(=O)N(CCCN2CCC(Cc3ccccc3)CC2)c2ccccc2)CN1Cc1ccccc1` (stereo not drawn) [Example 51, 1-benzyl-N-[3-(4-benzyl-1-piperidinyl)propyl]-5-oxo-N-phenyl-3-pyrrolidinecarboxamide], the inhibition at 1 µM stood at 92%.
